Patent US20250213707A1, “COMPOUND FOR INCREASING EFFICACY OF ONCOLYTIC VIRUSES” (ABLEVIA BIOTECH GMBH, priority 2022, published 2025)

Tested on: IgG from human donors (anti-AAV antibodies)
Experiment: Screen for anti-AAV antibodies in human sera, 2452 linear 15-amino-acid AAV peptides on microarrays (Table 1)
Format: binding
Parameters: key to group I: X: the deduplicated aggregate of the respective top 10 peptide hits for each donor was compiled and designated as group I; key to group II: X: the deduplicated aggregate of the respective top 25 peptide hits for each donor was compiled and designated as group II; key to group III: X: the deduplicated aggregate of the respective top 50 peptide hits for each donor was compiled and designated as group III
Details: for group I: membership in deduplicated aggregate of top 10 peptide hits for each donor; for group II: membership in deduplicated aggregate of top 25 peptide hits for each donor
Experimental: 2452 linear peptides derived from the sequences of 16 different AAVs and with a sequence length of 15 amino-acids each were synthesized.
Samples obtained from human donors were screened for antibodies against these AAV-derived peptides immobilized on microarrays. To this end, IgG was prepared from blood obtained from the human donors by protein G purification. Each IgG sample was incubated with the peptide microarrays and Ig binding signals were detected by fluorescence. All antibody binding signals to the peptides on the arrays were background subtracted and ranked for each sample and a deduplicated aggregate of the respective top 250 peptide hits for each donor with the corresponding protein sequence of origin (as obtained from UniProt or other sources) was compiled (designated as group IV). Further, the deduplicated aggregate of the respective top 50 peptide hits for each donor was compiled and designated as group III. Further, the deduplicated aggregate of the respective top 25 peptide hits for each donor was compiled and designated as group II. Finally, the deduplicated aggregate of the respective top 10 peptide hits for each donor was compiled and designated as group I.
Altogether, group I contains 110 distinct peptide hits (assigned to the corresponding AAV vectors in Table 1), group II contains 289 distinct peptide hits, group III contains 428 distinct peptide hits and group IV contains 1271 distinct peptide hits. Evidently, group I is a subset of group II which in turn is a subset of group III which in turn is a subset of group IV. Groups I-IV correspond to the top 4.4%, […], 17.5% and 51.8%, respectively, of all peptides screened.

[1] = X = peptide in the deduplicated aggregate of the top 50 peptide hits for each donor (top 17.5% of all peptides screened), linear 15-amino-acid AAV peptides on microarrays, human donor IgG, fluorescence
[2] = X = peptide belongs to the deduplicated aggregate of the top 50 peptide hits for each donor, linear 15-amino-acid AAV peptides, IgG binding by fluorescence
[3] = human donor IgG binding to linear 15-amino-acid AAV peptides on microarray, fluorescence
[4] = membership in deduplicated aggregate of top 50 peptide hits for each donor, human donor IgG binding to linear 15-amino-acid AAV peptides on microarray, fluorescence

| Substance | group III [2] | group I [3] | group II [3] | group III [4] | further results |
| --- | --- | --- | --- | --- | --- |
| 428 (PVATEEYGIVADNLQ; REGION 1..15: note = peptide derived from viral capsid protein) [compound 428] | – | – | – | – | group III [1]: X |
| 333 (MITDEEEIRTTNPVA; REGION 1..15: note = peptide derived from viral capsid protein) [compound 333] | X | – | – | – | – |
| PLVDQYLYRFVSTN (REGION 1..14: note = peptide derived from viral capsid protein) [SEQ ID NO: 1938] | – | X | X | X | – |
| 414 (GNGLDKGEPVNAADA; REGION 1..15: note = peptide derived from viral capsid protein) [compound 414] | – | – | – | – | group III [1]: X |
| 438 (TTGGTANTQTLGFSQ; REGION 1..15: note = peptide derived from viral capsid protein) [compound 438] | – | – | – | – | group III [1]: X |
| 361 (YSTPWGYFDFNRFHC; REGION 1..15: note = peptide derived from viral capsid protein) [compound 361] | X | – | – | – | – |
| PWGYFDFNRFHCHF (REGION 1..14: note = peptide derived from viral capsid protein) [SEQ ID NO: 1961] | – | X | X | X | – |
| DKAYDQQLQAGDNP (REGION 1..14: note = peptide derived from viral capsid protein) [SEQ ID NO: 1928] | – | X | X | X | – |
| 292 (HDDEERFFPSSGVLM; REGION 1..15: note = peptide derived from viral capsid protein) [compound 292] | X | – | – | – | – |
| 385 (TTSTRTWALPTYNNH; REGION 1..15: note = peptide derived from viral capsid protein) [compound 385] | X | – | – | – | – |
| 294 (GDSESVPDPQPIGEP; REGION 1..15: note = peptide derived from viral capsid protein) [compound 294] | X | – | – | – | – |
| YYKSTNVDFAVNTE [SEQ ID NO: 1916] | – | X | X | X | – |
| 339 (GNNFTFSYTFEDVPF; REGION 1..15: note = peptide derived from viral capsid protein) [compound 339] | X | – | – | – | – |
| 474 (ENSKRWNPEIQYTNN; REGION 1..15: note = peptide derived from viral capsid protein) [compound 474] | – | – | – | – | group III [1]: X |
| 349 (GSQAVGRSSFYCLEY; REGION 1..15: note = peptide derived from viral capsid protein) [compound 349] | X | – | – | – | – |
| YHLNGRDSLVNPGP (REGION 1..14: note = peptide derived from viral capsid protein) [SEQ ID NO: 1904] | – | X | X | X | – |
| EYQLPYVLGSAHQG (REGION 1..14: note = peptide derived from viral capsid protein) [SEQ ID NO: 1948] | – | X | X | X | – |
| SEPRPIGTRYLTRN (REGION 1..14: note = peptide derived from viral capsid protein) [SEQ ID NO: 1964] | – | X | X | X | – |
| 327 (QVKEVTQNDGTTTIA; REGION 1..15: note = peptide derived from viral capsid protein) [compound 327] | X | – | – | – | – |
| KNTPVPADPPTTFS (REGION 1..14: note = peptide derived from viral capsid protein) [SEQ ID NO: 1953] | – | × | X | X | – |
| 459 (YSTGQVTVEMEWELK; REGION 1..15: note = peptide derived from viral capsid protein) [compound 459] | – | – | – | – | group III [1]: X |
| DKAYDQQLKAGDNP (REGION 1..14: note = peptide derived from viral capsid protein) [SEQ ID NO: 1941] | – | X | X | X | – |
| 324 (SDIRDQSRNWLPGPC; REGION 1..15: note = peptide derived from viral capsid protein) [compound 324] | X | – | – | – | – |

| Substance | group III [2] | group I [3] | group II [3] | group III [4] | further results |
| --- | --- | --- | --- | --- | --- |
| KGEPVNAADAAALE (REGION 1..14: note = peptide derived from viral capsid protein) [SEQ ID NO: 1952] | – | × | X | X | – |
| 369 (EYQLPYVLGSAHQGC; REGION 1..15: note = peptide derived from viral capsid protein) [compound 369] | X | – | – | – | – |
| LQQQNTAPQIGTVN (REGION 1..14: note = peptide derived from viral capsid protein) [SEQ ID NO: 1934] | – | X | X | X | – |
| EEIKTTNPVATEQY (REGION 1..14: note = peptide derived from viral capsid protein) [SEQ ID NO: 1945] | – | X | X | X | – |
| 347 (AVNLQSSSTDPATGD; REGION 1..15: note = peptide derived from viral capsid protein) [compound 347] | X | – | – | – | – |
| 470 (ANNLTSTVQVFTDDD; REGION 1..15: note = peptide derived from viral capsid protein) [compound 470] | – | – | – | – | group III [1]: X |
| 329 (DADSVPDPQPLGQPP; REGION 1..15: note = peptide derived from viral capsid protein) [compound 329] | X | – | – | – | – |
| 483 (TMSAGGGGPLGDNNQ; REGION 1..15: note = peptide derived from viral capsid protein) [compound 483] | – | – | – | – | group III [1]: X |
| PVPADPPTTESQAK [SEQ ID NO: 1931] | – | X | X | X | – |
| DDEDKFFPMSGVMI (REGION 1..14: note = peptide derived from viral capsid protein) [SEQ ID NO: 1937] | – | X | X | X | – |
| 295 (DNPYLRYHADAEFQE; REGION 1..15: note = peptide derived from viral capsid protein) [compound 295] | X | – | – | – | – |
| 479 (DSTTTIANNLTSTVQ; REGION 1..15: note = peptide derived from viral capsid protein) [compound 479] | – | – | – | – | group III [1]: X |
| 332 (ISSQSGASNDNHYFG; REGION 1..15: note = peptide derived from viral capsid protein) [compound 332] | X | – | – | – | – |
| 380 (SSYAHSQSLDRLMNP; REGION 1..15: note = peptide derived from viral capsid protein) [compound 380] | X | – | – | – | – |
| 336 (VTQNDGTTTIANNLT; REGION 1..15: note = peptide derived from viral capsid protein) [compound 336] | X | – | – | – | – |
| 362 (AHQGCLPPFPADVFM; REGION 1..15: note = peptide derived from viral capsid protein) [compound 362] | X | – | – | – | – |
| 338 (PLGLVEEPVKTAPGK; REGION 1..15: note = peptide derived from viral capsid protein) [compound 338] | X | – | – | – | – |
| 350 (TQYSTGQVSVEIEWE; REGION 1..15: note = peptide derived from viral capsid protein) [compound 350] | X | – | – | – | – |
| 298 (PLGLVESPVKTAPGK; REGION 1..15: note = peptide derived from viral capsid protein) [compound 298] | X | – | – | – | – |
| GNTSQQQTDRNAFY (REGION 1..14: note = peptide derived from viral capsid protein) [SEQ ID NO: 1897] | – | X | X | X | – |
| 384 (HSSYAHSQSLDRLMN; REGION 1..15: note = peptide derived from viral capsid protein) [compound 384] | X | – | – | – | – |
| FQERLQEDTSFGGN [SEQ ID NO: 1949] | – | X | X | X | – |
